The test system of one series is MOLT-4. Kind of series: in vitro leukemia cell growth inhibition (NCI screen).
For a further series, the system named is IGROV1. Kind of series: in vitro ovarian cancer cell growth inhibition (NCI screen).
In a further series the test system is MDA-MB-435. The series is described as follows: in vitro breast cancer cell growth inhibition (NCI screen).
For the next series, the system named is NCI-H266. Kind of series: in vitro non-small cell lung cancer cell growth inhibition (NCI screen).
The next series has as its system MCF-7. The series is described as follows: in vitro breast cancer cell growth inhibition (NCI screen).
In the next series the test system is BT-549. The description is as above.
In another series the test system is SW 620. The series is described as follows: in vitro colon cancer cell growth inhibition (NCI screen).
Another series deals with K-562. Kind of series: in vitro leukemia cell growth inhibition (NCI screen).
Another series concerns OVCAR-3. Kind of series: in vitro ovarian cancer cell growth inhibition (NCI screen).
The subject of a further series is human tumor cell lines. The format is cell-based. The settings on record: for GI50: Homo sapiens, cancer cell panel, general / most cell lines, read-out: logGI50 values in the cancer cell line panel (converted).
Another series has as its system TK-10. The series is described as follows: in vitro renal cancer cell growth inhibition (NCI screen).
A further series has as its system PC-3. The series is described as follows: in vitro prostate cancer cell growth inhibition (NCI screen).
A further series deals with MALME-3M. Kind of series: in vitro melanoma cell growth inhibition (NCI screen).
In a further series the test system is UACC-62. Described as above.
For another series, the system named is HOP-92. The series is described as follows: in vitro non-small cell lung cancer cell growth inhibition (NCI screen).
Another series has as its system MCF7/ADR-RES. The series is described as follows: in vitro breast cancer cell growth inhibition (NCI screen).
A further series deals with NCI-H522. The series is described as follows: in vitro non-small cell lung cancer cell growth inhibition (NCI screen).
The next series concerns HCT-116. The series is described as follows: in vitro colon cancer cell growth inhibition (NCI screen).
For the next series, the system named is T-47D. Kind of series: in vitro breast cancer cell growth inhibition (NCI screen).
The subject of another series is MDA-N. Described as above.
The subject of the next series is ACHN. Kind of series: in vitro renal cancer cell growth inhibition (NCI screen).
Another series deals with COLO-205. The series is described as follows: in vitro colon cancer cell growth inhibition (NCI screen).
A further series deals with RXF-393. The series is described as follows: in vitro renal cancer cell growth inhibition (NCI screen).
A further series concerns NCI-H23. The series is described as follows: in vitro non-small cell lung cancer cell growth inhibition (NCI screen).
The next series deals with HCT-15. Kind of series: in vitro colon cancer cell growth inhibition (NCI screen).
A further series has as its system KM 12. Described as above.
The next series relates to HL-60(TB). Kind of series: in vitro leukemia cell growth inhibition (NCI screen).
For a further series, the system named is M14. The series is described as follows: in vitro melanoma cell growth inhibition (NCI screen).
The test system of a further series is SK-MEL-28. The series is described as above.
The next series relates to U 251. Kind of series: in vitro CNS cancer cell growth inhibition (NCI screen).
Another series has as its system RPMI-8226. The series is described as follows: in vitro leukemia cell growth inhibition (NCI screen).
The test system of the next series is SK-MEL-5. The series is described as follows: in vitro melanoma cell growth inhibition (NCI screen).
In a further series the test system is UACC-257. Described as above.
The subject of the next series is CCRF-CEM. The series is described as follows: in vitro leukemia cell growth inhibition (NCI screen).
The subject of another series is SR. The series is described as above.
The test system of the next series is OVCAR-4. The series is described as follows: in vitro ovarian cancer cell growth inhibition (NCI screen). The conditions noted are these: OVACR-4.
For a further series, the system named is LOX1MVI. The series is described as follows: in vitro melanoma cell growth inhibition (NCI screen).
For the next series, the system named is NCI-H460. Kind of series: in vitro non-small cell lung cancer cell growth inhibition (NCI screen).
Another series has as its system M19-MEL. Kind of series: in vitro melanoma cell growth inhibition (NCI screen).
The subject of a further series is SN12C. The series is described as follows: in vitro renal cancer cell growth inhibition (NCI screen).
The test system of a further series is SF-539. Kind of series: in vitro CNS cancer cell growth inhibition (NCI screen).

For the compound `O=C(NC1=C(Cl)C(=O)c2ccccc2C1=O)c1ccccc1` [Compound 2e, 2-Benzoylamino-3-chloro-1,4-naphthoquinone], the “cytotoxicity log GI50” value is -4.70 M in the series on MOLT-4; -4.66 M in the series with IGROV1; -4.72 M with MDA-MB-435; -4.61 M in the series with NCI-H266; -4.72 M in the series on MCF-7; -4.70 M with BT-549. The “cytotoxicity log GI50” value is recorded as -4.76 M in the series with SW 620; -4.66 M in the series on K-562; -4.72 M in the series on OVCAR-3; -4.64 M in the series with TK-10; -4.60 M in the series with PC-3; -4.77 M with MALME-3M. Also, the “cytotoxicity log GI50” value is -4.62 M in the series on UACC-62; -4.60 M in the series on HOP-92; -4.73 M in the series on MCF7/ADR-RES; -4.62 M in the series on NCI-H522; -4.76 M in the series on HCT-116; -4.66 M with T-47D. Besides, the “cytotoxicity log GI50” value in the series with MDA-N is given as -5.30 M; in the series with ACHN, -4.68 M; with COLO-205, -4.81 M; with RXF-393, -4.72 M; with NCI-H23, -4.62 M; in the series with HCT-15, -4.60 M. The GI50 in the series with human tumor cell lines is 10 to 100 µM.

Regarding `COc1ccc(C(=O)NC2=C(Cl)C(=O)c3ccccc3C2=O)cc1` [Compound 2g], the “cytotoxicity log GI50” value in the series on NCI-H266 was -5.87 M; with KM 12, -5.82 M; in the series with HL-60(TB) it was -6.35 M; in the series with M14, -6.20 M; in the series with SK-MEL-28, -6.17 M; in the series with BT-549, -5.77 M. For the same compound, the “cytotoxicity log GI50” value is -6.17 M in the series on SW 620; -5.85 M in the series on K-562; -5.83 M in the series on U 251; -5.79 M with OVCAR-3; -5.90 M in the series with PC-3; -6.02 M in the series with RPMI-8226. Further, the “cytotoxicity log GI50” value in the series with MALME-3M was -5.92 M; in the series with SK-MEL-5, -5.89 M; in the series with UACC-62 it was -6.12 M; in the series with HOP-92, -5.82 M; in the series with MCF7/ADR-RES, -5.85 M; in the series with NCI-H522, -6.42 M. The “cytotoxicity log GI50” value in the series with HCT-116 is -6.36 M; with UACC-257, -5.79 M; with T-47D, -5.90 M; in the series on ACHN, -6.44 M; with COLO-205 it was -5.76 M; with RXF-393 it was -6.23 M. For the same compound, the figures for the “cytotoxicity log GI50” value in the series on CCRF-CEM and in the series on HCT-15 were -6.10 M and -6.37 M, respectively. Moreover, in the series with human tumor cell lines, the GI50 was ~1 µM.

For the compound `COc1cc(OC)cc(C(=O)NC2=C(Cl)C(=O)c3ccccc3C2=O)c1` [Compound 2h], the “cytotoxicity log GI50” value in the series with IGROV1 is recorded as -5.86 M; with KM 12 it was -5.92 M; in the series with HL-60(TB), -7.04 M; in the series on M14, -6.26 M; in the series on SK-MEL-28, -5.85 M; in the series with BT-549 it was -5.81 M. Also, the “cytotoxicity log GI50” value is recorded as -6.24 M with SW 620; -6.39 M in the series on K-562; -6.24 M with PC-3; -6.31 M in the series on RPMI-8226; -5.89 M with SK-MEL-5; -6.82 M with UACC-62. Further, the “cytotoxicity log GI50” value was -5.83 M in the series with MCF7/ADR-RES; -6.49 M in the series on NCI-H522; -6.35 M in the series with HCT-116; -5.85 M in the series with T-47D; -6.39 M in the series on ACHN; -6.28 M with RXF-393. The figures for the “cytotoxicity log GI50” value with CCRF-CEM, with SR and with HCT-15 were -6.70 M, -6.33 M and -6.38 M, respectively. Moreover, the “cytotoxicity against tumor cells (in words)” value in the series with human tumor cell lines (cancer cell line panel) was “similarly potent cytotoxic activity”.

Consider `CC(=O)NC1=C(NCCN(C)C)C(=O)c2ccccc2C1=O` [Compound 39], for which the “cytotoxicity log GI50” value in the series with HL-60(TB) is reported as -5.01 M; in the series on OVCAR-4, -5.05 M; in the series on K-562 it was -4.91 M; in the series with LOX1MVI, -4.90 M; with NCI-H460, -4.89 M; in the series on U 251, -4.99 M. Besides, the “cytotoxicity log GI50” value with M19-MEL is -5.12 M; in the series on SN12C, -4.98 M; in the series on MALME-3M, -5.12 M; with SK-MEL-5, -5.14 M; with UACC-62, -4.98 M; with NCI-H522, -4.99 M. Also, the “cytotoxicity log GI50” value with HCT-116 is on record as -5.08 M; with UACC-257 it was -5.03 M; with COLO-205, -5.00 M; in the series with NCI-H23, -4.94 M; with HCT-15, -5.02 M; in the series with SF-539 it was -4.93 M.

Consider `COc1ccc(-n2c(CCCC(=O)O)nc3c2C(=O)c2ccccc2C3=O)cc1` [Compound 59], for which the “cytotoxicity log GI50” value in the series on MDA-MB-435 is reported as -4.58 M; with MCF-7, -4.49 M; in the series with HL-60(TB), -4.51 M; in the series on M14, -4.81 M; in the series with BT-549 it was -5.06 M; with OVCAR-3, -4.48 M. Also, the “cytotoxicity log GI50” value is on record as -4.44 M in the series on RPMI-8226; -4.82 M with MALME-3M; -4.63 M in the series on UACC-62; -4.69 M in the series on HOP-92; -4.59 M with NCI-H522; -4.44 M with HCT-116. In addition, the “cytotoxicity log GI50” value in the series with UACC-257 was -4.56 M; with MDA-N, -4.50 M; in the series on COLO-205, -4.43 M; in the series with CCRF-CEM it was -4.44 M; with NCI-H23 it was -4.36 M; in the series on HCT-15, -4.35 M.

For the origin of these results see patent US5789431A, “Naphthoquinone antitumor compound and method” (The University of North Carolina at Chapel Hill, priority 1996, dated 1998).
